Where a SMILES comes first, the peptide text is derived from it. The star is where a group is joined. Cbz = O=C(OCc1ccccc1)*
What was measured:
proteasome [1] = experiment: Proteasome chymotrypsin-like; type: cell-based, mouse; conditions: HepB5 cells, 48 hr
SIINFEKL-H2Kb complex [2] = experiment: Presentation of […]-H2Kb complex on HepB5 cells; type: cell-based, mouse; conditions: for SIINFEKL-H2Kb presentation compared with controls: IFNγ-pretreated HepB5 cells, 1 hr
proteasome [3] = experiment: Hydrolysis of […]-TE by cytosolic fractions of HepB5 cells; type: biochemical, mouse
SIINFEKL-H2Kb complex [4] = experiment: Presentation of SIINFEKL-H2Kb complex on primary hepatocytes
proteasome [5] = experiment: Proteasome activity in primary hepatocytes
HepB5 cells = experiment: Acetaldehyde level in medium by head space gas chromatography; type: cell-based, mouse; conditions: HepB5 cells incubated with ethanol and DAS, 20 μM; culture medium
LMP2 = conditions: HepB5 cells, IFNγ 10 ng/ml and ethanol 50 mM, 48 hr; normalized to β-actin
PA28 = conditions: HepB5 cells, IFNγ 10 ng/ml and ethanol 50 mM, 48 hr; normalized to β-actin
STAT1 [6] = conditions: HepB5 cells, ethanol 48 hr then IFNγ 1 hr; nuclear extracts; 3 experiments
STAT1 [7] = conditions: HepB5 cells, ethanol treatment then IFNγ; data not shown
ADH = ADH (Mus musculus, UniProt P00329); conditions: HepB5 cells exposed to ethanol for 48 hr; total cell lysates
Chain of ADH (P00329 whole entry): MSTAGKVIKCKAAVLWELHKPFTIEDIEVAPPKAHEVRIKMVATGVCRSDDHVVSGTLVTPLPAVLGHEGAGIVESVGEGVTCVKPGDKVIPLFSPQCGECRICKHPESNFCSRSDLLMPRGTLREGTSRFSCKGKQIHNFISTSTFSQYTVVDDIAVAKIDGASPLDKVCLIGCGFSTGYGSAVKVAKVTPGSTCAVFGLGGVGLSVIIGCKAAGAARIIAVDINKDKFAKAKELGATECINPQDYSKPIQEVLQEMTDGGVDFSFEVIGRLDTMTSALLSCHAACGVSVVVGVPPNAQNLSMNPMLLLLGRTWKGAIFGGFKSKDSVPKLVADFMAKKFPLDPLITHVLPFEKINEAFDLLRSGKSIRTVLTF

H2Kb = H2Kb expression on HepB5 cells; type: cell-based, mouse; conditions: HepB5 cells after 24-hr IFNγ exposure; flow cytometric analysis
[8] = 50 mM ethanol 18 hr, without IFNγ

Compound: Cc1cn[nH]c1 [4MP, 4-methylpyrazole, reference compound]
- Cht-L proteasome activity, cells incubated with ethanol and 4MP (proteasome [1]; 50 mM ethanol + 4MP 2 mM): unaffected
- Suppressive effects of ethanol on SIINFEKL-H2Kb presentation (SIINFEKL-H2Kb complex [2]; IFNγ-treated HepB5 cells, 50 mM ethanol with 4 MP in culture medium): blocked
- Inhibitory effect of ethanol on peptide cleavage after ethanol and 4MP (proteasome [3]; cytosols of HepB5 cells incubated with 50 mM ethanol and 4MP 2 mM): partially reversed
- Ethanol-elicited reduction in SIINFEKL-H2Kb presentation (SIINFEKL-H2Kb complex [4]; 50 mM ethanol + 4MP 2 mM): partially prevented
- Ethanol-elicited reduction in proteasome activity (proteasome [5]; 50 mM ethanol + 4MP 2 mM): partially prevented

Compound: C=CCSCC=C [DAS, diallyl sulfide]
- Ach (acetaldehyde) levels (HepB5 cells): suppressed

Compound: CC(C)C[C@@H](C=O)NC(=O)[C@H](CC(C)C)NC(=O)[C@H](CC(C)C)NC(=O)OCc1ccccc1 [MG132] (Cbz-Leu-Leu-Leu-aldehyde)
- SIINFEKL-H2Kb presentation compared with controls (SIINFEKL-H2Kb complex [2]; MG132 20 μM): suppressed
- SIINFEKL-TE hydrolysis (proteasome [3]; cytosols of HepB5 cells with MG132): completely blocked

Compound: C[C@H]1CCC/C=C/[C@@H]2C[C@H](O)C[C@H]2[C@H](O)/C=C/C(=O)O1 [brefeldin A]
- SIINFEKL-H2Kb presentation compared with controls (SIINFEKL-H2Kb complex [2]; brefeldin A 5 μg/ml): suppressed

Compound: CCO [ethanol]
- Induction of immunoproteasome subunit LMP2 by IFNγ (LMP2): prevented the induction
- Induction of 20S proteasome activator PA28 expression by IFNγ (PA28): prevented the induction
- Effect on IFNγ induction of proteasome activity (proteasome [1]; 50 mM ethanol + IFNγ 10 ng/ml): blocked this induction
- Cht-L proteasome activity reduced by (proteasome [1]; ethanol 50 mM, 3 experiments): 40%
- STAT1 attachment to DNA (STAT1 [6]): suppressed
- STAT1 phosphorylation (STAT1 [7]): no changes
- ADH activity (ADH): unchanged
- Peptide hydrolysis in IFNγ-treated cells (proteasome [3]; cytosols of IFNγ-treated HepB5 cells exposed to 50 mM ethanol): suppressed
- Presentation of SIINFEKL-H2Kb complexes (SIINFEKL-H2Kb complex [4]; [8]): decreased
- Antigen presentation in IFNγ-pretreated hepatocytes (SIINFEKL-H2Kb complex [4]; IFNγ 10 ng/ml, 50 mM ethanol): down-regulated
- Proteasome activity (proteasome [5]; [8]): decreased
- Proteasome function in IFNγ-pretreated hepatocytes (proteasome [5]; IFNγ 10 ng/ml, 50 mM ethanol): down-regulated

Compound: COC1=C2C[C@@H](C)C[C@H](OC)[C@H](O)[C@@H](C)/C=C(\C)[C@H](OC(N)=O)[C@@H](OC)/C=C\C=C(/C)C(=O)NC(=CC1=O)C2=O [geldanamycin]
- SIINFEKL-H2Kb presentation compared with controls (SIINFEKL-H2Kb complex [2]; geldanamycin 5 μM): suppressed

Compound: IFNγ: recombinant interferon gamma, used at 10 ng/ml
- Effect on proteasome activity (proteasome [1]; IFNγ 10 ng/ml): induced proteasome activity
- H2Kb positive cells (H2Kb): about 90%

Compound: catalase
- SIINFEKL-H2Kb presentation restored (SIINFEKL-H2Kb complex [2]; IFNγ-treated HepB5 cells, co-treatment with ethanol and catalase): up to 80%

— article PMC2670776 (Hepatology (Baltimore, Md.), 2009)
